Values quoted from earlier work, collected in US11345708B2, “Substituted imidazo[1,2-a]imidazoles as modulators of metabotropic glutamate receptor 4 activity” (Hoffmann-La Roche Inc., priority 2017, dated 2022).

Key:
mice [1] = conditions: reported by Addex 2010; cited from earlier work
rats = conditions: cited from earlier work
mice [2] = conditions: reported by Addex 2010; cited from earlier work; remark: listed apart in the source

## Cc1ccnc(Nc2nc(-c3cn[nH]c3)c(C)s2)n1 [ADX88178]
Mice [1]
  activity in EPM: active
rats; rat, after oral dosing
  profile in rat EPM test: anxiolytic-like profile
rats; rats, reported by Addex 2010
  activity in EPM: active
Mice [2]
  activity in marble burying test: active
